The values that follow come from patent publication US20250382344A1, “Soluble GLP1/GIP/NPY2 Receptor Triple Agonists” (Boehringer Ingelheim International GmH, priority 2024, published 2025).

One series has as its target T1, hNPY2R (Homo sapiens, UniProt P49146).
T1 construct: expressed in transfected cells; host or cells: HEK-293 CRE-luciferase reporter cells
T1 sequence (P49146 1-381): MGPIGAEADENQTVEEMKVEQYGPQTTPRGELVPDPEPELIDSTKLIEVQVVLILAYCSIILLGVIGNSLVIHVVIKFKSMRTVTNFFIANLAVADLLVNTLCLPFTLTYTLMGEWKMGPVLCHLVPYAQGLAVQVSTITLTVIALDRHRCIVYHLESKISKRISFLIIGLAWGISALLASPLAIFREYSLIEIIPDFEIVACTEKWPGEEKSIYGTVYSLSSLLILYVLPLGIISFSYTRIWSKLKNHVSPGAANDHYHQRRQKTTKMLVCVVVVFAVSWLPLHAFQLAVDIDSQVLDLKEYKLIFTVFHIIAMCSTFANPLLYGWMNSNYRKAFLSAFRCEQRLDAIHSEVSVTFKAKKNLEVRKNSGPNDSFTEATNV
Description: hNPY2R CreLuc assay in 0.5% and 100% plasma (HEK-293 CRE-luciferase reporter cells). It is filed as cell-based. The following applies: 100% human plasma, HEK-293 reporter cells, read-out: hNPY2R 100% hP. Background: In a reporter assay the amount or activity of a reporter protein is the signal.

The next series addresses T2, hGLP1R (Homo sapiens, UniProt P43220).
T2 construct: expressed in transfected cells; host or cells: HEK-293 CRE-luciferase reporter cells
Description: hGLP1R CreLuc assay in 0.5% and 100% plasma (HEK-293 CRE-luciferase reporter cells). It is filed as cell-based. To be noted: HEK-293 reporter cells.

Another series has as its target T3, hGIPR (Homo sapiens, UniProt P48546).
T3 construct: expressed in transfected cells; host or cells: CHO CRE-luciferase reporter cells
T3 sequence (P48546 22-466): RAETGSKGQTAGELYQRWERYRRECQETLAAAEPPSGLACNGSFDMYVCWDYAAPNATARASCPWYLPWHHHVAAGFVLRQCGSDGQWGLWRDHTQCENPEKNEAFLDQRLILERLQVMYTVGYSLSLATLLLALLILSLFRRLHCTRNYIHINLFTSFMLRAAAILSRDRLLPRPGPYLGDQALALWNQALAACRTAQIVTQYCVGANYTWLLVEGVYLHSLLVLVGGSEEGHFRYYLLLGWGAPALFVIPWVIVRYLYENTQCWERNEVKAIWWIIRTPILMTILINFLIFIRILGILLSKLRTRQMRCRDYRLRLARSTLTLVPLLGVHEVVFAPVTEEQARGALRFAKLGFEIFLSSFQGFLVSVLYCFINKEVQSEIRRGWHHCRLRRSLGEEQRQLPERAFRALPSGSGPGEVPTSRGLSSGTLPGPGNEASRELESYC
Description: hGIPR CreLuc assay in 0.5% and 100% plasma (CHO CRE-luciferase reporter cells). Format: cell-based.

The nature of series [1]: Solubility in 0.1 M phosphate buffer at pH 7. It is filed as physicochemical. The following applies: 0.1 M phosphate buffer at pH 7, 10 mg/mL final peptide concentration, shaking 2 hours at room temperature, peptides as TFA-salts; measured sample pH 6.5-7.0.
[2] abbreviates: 0.5% human plasma, read-out: hGLP1R 0.5% hP.
[3] abbreviates: 0.5% human plasma, read-out: hGIPR 0.5% hP.

Structures are written as SMILES. Like-named read-outs stand apart in the source and are kept apart here.

T2 sequence (P43220 24-463): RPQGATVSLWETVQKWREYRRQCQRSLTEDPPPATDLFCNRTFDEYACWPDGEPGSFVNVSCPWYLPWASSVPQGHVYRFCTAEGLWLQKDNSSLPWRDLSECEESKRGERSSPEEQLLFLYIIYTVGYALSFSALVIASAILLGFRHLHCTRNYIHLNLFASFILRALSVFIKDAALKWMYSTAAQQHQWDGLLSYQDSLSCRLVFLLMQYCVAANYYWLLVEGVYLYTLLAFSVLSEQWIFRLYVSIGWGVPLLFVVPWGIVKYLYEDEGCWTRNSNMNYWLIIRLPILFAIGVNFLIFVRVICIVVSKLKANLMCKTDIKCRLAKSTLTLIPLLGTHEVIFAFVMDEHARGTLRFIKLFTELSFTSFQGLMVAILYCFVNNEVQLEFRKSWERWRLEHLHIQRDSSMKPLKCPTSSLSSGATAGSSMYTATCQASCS

Turning to `CC[C@H](C)[C@H](NC(=O)[C@H](CC(C)C)NC(=O)[C@H](Cc1c[nH]cn1)NC(=O)[C@H](CCCNC(=N)N)NC(=O)[C@@H](NC(=O)[C@H](Cc1ccccc1)NC(=O)[C@H](CCC(=O)O)NC(=O)C(C)(C)NC(=O)[C@H](CCC(N)=O)NC(=O)[C@H](C)NC(=O)[C@H](CCC(N)=O)NC(=O)[C@H](CCCCN)NC(=O)[C@H](CCC(=O)O)NC(=O)[C@H](CC(C)C)NC(=O)C(C)(C)NC(=O)[C@@H](NC(=O)[C@H](CO)NC(=O)[C@H](Cc1ccc(O)cc1)NC(=O)[C@H](CC(=O)O)NC(=O)[C@H](CO)NC(=O)[C@@H](NC(=O)[C@H](Cc1ccccc1)NC(=O)[C@@H](NC(=O)CNC(=O)[C@H](CCC(=O)O)NC(=O)C(C)(C)NC(=O)[C@@H](N)Cc1ccc(O)cc1)[C@@H](C)O)[C@@H](C)O)[C@@H](C)CC)C(C)C)C(=O)N[C@@H](CC(N)=O)C(=O)N[C@@H](CCCCNC(=O)COCCOCCNC(=O)COCCOCCNC(=O)CC[C@H](NC(=O)CC[C@H](NC(=O)CC[C@H](NC(=O)CC[C@H](NC(=O)CCCCCCCCCCCCCCCCC(=O)O)C(=O)O)C(=O)O)C(=O)O)C(=O)O)C(=O)NC(C)(C)C(=O)N[C@H](C(=O)N[C@@H](CCCNC(=N)N)C(=O)N[C@@H](CCC(N)=O)C(=O)N[C@@H](CCCNC(=N)N)C(=O)N[C@@H](Cc1ccc(O)cc1)C(N)=O)[C@@H](C)O` [Compound 73, Y-Aib-E-G-T-F-T-S-D-Y-S-I-Aib-L-E-K-Q-A-Q-Aib-E-F-V-R-H-L-I-N-K(1,3)-Aib-T-R-Q-R-Y-NH2.C18DA-gGlu-gGlu-gGlu-gGlu-OEG-OEG(1,2)], the EC50 on hNPY2R came to 136 nM; on hGLP1R (setting [2]), 0.4 nM; on hGIPR (setting [3]) it was 0.4 nM; on hGIPR (100% human plasma, read-out: hGIPR 100% hP), 5.9 nM. The solubility (as a rule, the dissolved amount per volume that the medium holds) at 2 h in series [1] was 4900 µg/mL.
Regarding `CC[C@H](C)[C@H](NC(=O)[C@H](CC(C)C)NC(=O)[C@H](Cc1c[nH]cn1)NC(=O)[C@H](CCCNC(=N)N)NC(=O)[C@@H](NC(=O)[C@H](Cc1ccccc1)NC(=O)[C@H](C)NC(=O)C(C)(C)NC(=O)[C@H](CCC(N)=O)NC(=O)[C@H](C)NC(=O)[C@H](CCC(N)=O)NC(=O)[C@H](CCCCN)NC(=O)[C@H](CCC(=O)O)NC(=O)[C@H](CC(C)C)NC(=O)C(C)(C)NC(=O)[C@@H](NC(=O)[C@H](CO)NC(=O)[C@H](Cc1ccc(O)cc1)NC(=O)[C@H](CC(=O)O)NC(=O)[C@H](CO)NC(=O)[C@@H](NC(=O)[C@H](Cc1ccccc1)NC(=O)[C@@H](NC(=O)CNC(=O)[C@H](CCC(=O)O)NC(=O)C(C)(C)NC(=O)[C@@H](N)Cc1ccc(O)cc1)[C@@H](C)O)[C@@H](C)O)[C@@H](C)CC)C(C)C)C(=O)N[C@@H](CC(N)=O)C(=O)N[C@@H](CCCCNC(=O)[C@@H](N)CCCNC(=O)CC[C@H](NC(=O)CC[C@H](NC(=O)CC[C@H](NC(=O)CC[C@H](NC(=O)CC[C@H](NC(=O)CC[C@H](NC(=O)CCCCCCCCCCCCCCCCC(=O)O)C(=O)O)C(=O)O)C(=O)O)C(=O)O)C(=O)O)C(=O)O)C(=O)NC(C)(C)C(=O)N[C@H](C(=O)N[C@@H](CCCNC(=N)N)C(=O)N[C@@H](CCC(N)=O)C(=O)N[C@@H](CCCNC(=N)N)C(=O)N[C@@H](Cc1ccc(O)cc1)C(N)=O)[C@@H](C)O` [Compound 87, Y-Aib-E-G-T-F-T-S-D-Y-S-I-Aib-L-E-K-Q-A-Q-Aib-A-F-V-R-H-L-I-N-K(1,3)-Aib-T-R-Q-R-Y-NH2.C18DA-gGlu-gGlu-gGlu-gGlu-gGlu-gGlu-dtOrn(1,2)], the EC50 was 57.9 nM on hNPY2R, 1.7 nM on hGLP1R (setting [2]) and 0.2 nM at hGIPR (setting [3]). Further, the solubility at 2 h in series [1] is 4900 µg/mL.
As to `CC[C@H](C)[C@H](NC(=O)[C@H](CC(C)C)NC(=O)[C@H](Cc1c[nH]cn1)NC(=O)[C@H](CCCNC(=N)N)NC(=O)[C@@H](NC(=O)[C@H](Cc1ccccc1)NC(=O)[C@H](C)NC(=O)C(C)(C)NC(=O)[C@H](CCC(N)=O)NC(=O)[C@H](C)NC(=O)[C@H](CCC(N)=O)NC(=O)[C@H](CCCCN)NC(=O)[C@H](CCC(=O)O)NC(=O)[C@H](CC(C)C)NC(=O)C(C)(C)NC(=O)[C@@H](NC(=O)[C@H](CO)NC(=O)[C@H](Cc1ccc(O)cc1)NC(=O)[C@H](CC(=O)O)NC(=O)[C@H](CO)NC(=O)[C@@H](NC(=O)[C@H](Cc1ccccc1)NC(=O)[C@@H](NC(=O)CNC(=O)[C@H](CCC(=O)O)NC(=O)C(C)(C)NC(=O)[C@@H](N)Cc1ccc(O)cc1)[C@@H](C)O)[C@@H](C)O)[C@@H](C)CC)C(C)C)C(=O)N[C@@H](CC(N)=O)C(=O)N[C@@H](CCCCNC(=O)[C@@H](N)CCCNC(=O)CC[C@H](NC(=O)CC[C@H](NC(=O)CC[C@H](NC(=O)CC[C@H](NC(=O)CC[C@H](NC(=O)CC[C@H](NC(=O)CCCCCCCCCCCCCCCCCCC(=O)O)C(=O)O)C(=O)O)C(=O)O)C(=O)O)C(=O)O)C(=O)O)C(=O)NC(C)(C)C(=O)N[C@H](C(=O)N[C@@H](CCCNC(=N)N)C(=O)N[C@@H](CCC(N)=O)C(=O)N[C@@H](CCCNC(=N)N)C(=O)N[C@@H](Cc1ccc(O)cc1)C(N)=O)[C@@H](C)O` [Compound 97, Y-Aib-E-G-T-F-T-S-D-Y-S-I-Aib-L-E-K-Q-A-Q-Aib-A-F-V-R-H-L-I-N-K(1,3)-Aib-T-R-Q-R-Y-NH2.C20DA-gGlu-gGlu-gGlu-gGlu-gGlu-gGlu-dtOrn(1,2)], the EC50 was determined as 135 nM on hNPY2R, 3.8 nM on hGLP1R (setting [2]) and 0.6 nM at hGIPR (setting [3]). In addition, in series [1], the solubility at 2 h was 4700 µg/mL.
With `CC[C@H](C)[C@H](NC(=O)[C@H](CC(C)C)NC(=O)[C@H](Cc1c[nH]cn1)NC(=O)[C@H](CCCNC(=N)N)NC(=O)[C@@H](NC(=O)[C@H](Cc1ccccc1)NC(=O)[C@H](C)NC(=O)C(C)(C)NC(=O)[C@H](CCC(=O)O)NC(=O)[C@H](C)NC(=O)[C@H](CCC(N)=O)NC(=O)[C@H](CCCCN)NC(=O)[C@H](CCC(=O)O)NC(=O)[C@H](CC(C)C)NC(=O)[C@](C)(CC(C)C)NC(=O)[C@@H](NC(=O)[C@H](CO)NC(=O)[C@H](Cc1ccc(O)cc1)NC(=O)[C@H](CC(=O)O)NC(=O)[C@H](CO)NC(=O)[C@@H](NC(=O)[C@H](Cc1ccccc1)NC(=O)[C@@H](NC(=O)CNC(=O)[C@H](CCC(=O)O)NC(=O)C(C)(C)NC(=O)[C@@H](N)Cc1ccc(O)cc1)[C@@H](C)O)[C@@H](C)O)[C@@H](C)CC)C(C)C)C(=O)N[C@@H](CC(N)=O)C(=O)N[C@@H](CCCCNC(=O)[C@@H](N)CCCCNC(=O)CC[C@H](NC(=O)CC[C@H](NC(=O)CC[C@H](NC(=O)CC[C@H](NC(=O)CC[C@H](NC(=O)CC[C@H](NC(=O)CCCCCCCCCCCCCCCCCCC(=O)O)C(=O)O)C(=O)O)C(=O)O)C(=O)O)C(=O)O)C(=O)O)C(=O)NC(C)(C)C(=O)N[C@H](C(=O)N[C@@H](CCCNC(=N)N)C(=O)N[C@@H](CCC(N)=O)C(=O)N[C@@H](CCCNC(=N)N)C(=O)N[C@@H](Cc1ccc(O)cc1)C(N)=O)[C@@H](C)O` [Compound 103, Y-Aib-E-G-T-F-T-S-D-Y-S-I-aMeL-L-E-K-Q-A-E-Aib-A-F-V-R-H-L-I-N-K(1,3)-Aib-T-R-Q-R-Y-NH2.C20DA-gGlu-gGlu-gGlu-gGlu-gGlu-gGlu-eLys(1,2)], the EC50 on hNPY2R was 131 nM; on hGLP1R (setting [2]) it was 0.4 nM; on hGLP1R (100% human plasma, read-out: hGLP1R 100% hP), 0.6 nM; on hGIPR (setting [3]), 0.2 nM. Also, in series [1], the solubility at 2 h worked out at 9700 µg/mL.
